Experimental data taken from publication PMC6272426, “LC-ESI-MS/MS Analysis and Pharmacokinetics of GP205, an Innovative Potent Macrocyclic Inhibitor of Hepatitis C Virus NS3/4A Protease in Rats” (Molecules, 2015).
Read-outs that look alike come from different tables or passages of the source.

Tests used:
[1] = set-up: method as in PMID 15732092; settings: rhesus monkeys; cited from earlier work
[2] = both, Sprague-Dawley, rat, in vivo, iv, 1 mg/kg
Procedure: (§1) The method developed above was applied to a pharmacokinetic study of GP205 to SD rats after single oral doses at 2.5, 5 and 10 mg/kg and an intravenous injection dose at 1 mg/kg.
(§2) Twenty four SD rats (12 males and 12 females), weighing 210 ± 8 g (mean ± SD) were fed with certified standard diet and tap water ad libitum. Temperature and humidity were regulated at 21–23 °C and 30%–60%, respectively. A light/dark cycle of 12 h on/12 h off was established. After 1 week of acclimatization, they were randomly divided into 4 groups (3 males and 3 females for each group). After fasted overnight, three groups of them received oral administration of GP205 at three dosages 2.5 mg/kg, 5 mg/kg, 10 mg/kg dissolved in mixed solvent (5% DMSO, 40% PEG-400, 55% physiological saline), respectively. The other group of them received an intravenous injection of GP205 at 1 mg/kg. […] Blood samples (100 μL) were collected into heparinized tubes before administration and at 0.083, 0.17, 0.33, 0.5, 1, 2, 3, 4, 6, 8, 12, 24, 36, 48 h after oral administration or before administration and at 0, 0.083, 0.17, 0.33, 0.5, 1, 2, 3, 4, 6, 8, 12, 24, 36 , 48 h after intravenous administration. The plasma was separated from heparinized blood by centrifugation at 3500 rpm for 10 min and stored at −80 °C prior to analysis.

[3] = Sprague-Dawley, rat, in vivo, po
Procedure: as §1, §2

[4] = target: NS3 enzyme, genotype 1b HCV (HCV NS3/4A protease) (Hepatitis C virus genotype 1b, UniProt Q9WMX2); test: biochemical
[5] = assay type: physicochemical; settings: Stock solution
Procedure: [table] Stock solutions of GP205 were prepared by dissolving an accurately weighed amount of reference standard in methanol to yield a final concentration of 1 mg/mL. The solutions were sonicated for 5 min to ensure complete dissolution. Then the solutions were allowed to equilibrate to room temperature and diluted to volume with methanol. Working standard solutions of GP205 in the concentration range of 20–50,000 ng/mL were prepared from individual aliquots of 1 mg/mL solution using methanol–water (95:5, v/v) as the diluent. The stock standard solution of IS was prepared by dissolving appropriate amount of paclitaxel in methanol at the concentration of 1 mg/mL. A 1 μg/mL IS working solution was obtained by diluting the stock solution of paclitaxel with methanol–water (95:5, v/v). All the solutions were stored at 4 °C and brought to room temperature before use. Calibration standards were prepared daily by spiking 5 μL of the appropriate standard solutions to 45 μL of the blank SD rat plasma. Plasma concentrations were 2, 5, 10, 50, 100, 200, 500, 2000 and 5000 ng/mL for GP205. QC samples, which were used in the validation and during the pharmacokinetics study, were prepared from different sources by independent dilution at three levels (5, 100, 4000 ng/mL) for GP205. QC samples were aliquoted into 1.5 mL non-sterile Eppendorf tubes and stored at −80 °C until analysis.

[6] = Sprague-Dawley, rat
[7] = in vivo; settings: Sprague-Dawley, rat
Procedure: as §1, §2

[8] = in vivo; settings: both, Sprague-Dawley, rat, iv, 1 mg/kg
Procedure: as §1, §2

[9] = set-up: method as in PMID 24900304; settings: comparison value for MK-1220; cited from earlier work
[10] = 4 °C for 40 days, nominal 5 ng/mL
[11] = 4 °C for 40 days, nominal 100 ng/mL
[12] = 4 °C for 40 days, nominal 4000 ng/mL
[13] = 25 °C for 24 h, nominal 5 ng/mL
[14] = 25 °C for 24 h, nominal 100 ng/mL
[15] = 25 °C for 24 h, nominal 4000 ng/mL

Sequence of NS3 enzyme, genotype 1b HCV (HCV NS3/4A protease) (Q9WMX2 1027-1657): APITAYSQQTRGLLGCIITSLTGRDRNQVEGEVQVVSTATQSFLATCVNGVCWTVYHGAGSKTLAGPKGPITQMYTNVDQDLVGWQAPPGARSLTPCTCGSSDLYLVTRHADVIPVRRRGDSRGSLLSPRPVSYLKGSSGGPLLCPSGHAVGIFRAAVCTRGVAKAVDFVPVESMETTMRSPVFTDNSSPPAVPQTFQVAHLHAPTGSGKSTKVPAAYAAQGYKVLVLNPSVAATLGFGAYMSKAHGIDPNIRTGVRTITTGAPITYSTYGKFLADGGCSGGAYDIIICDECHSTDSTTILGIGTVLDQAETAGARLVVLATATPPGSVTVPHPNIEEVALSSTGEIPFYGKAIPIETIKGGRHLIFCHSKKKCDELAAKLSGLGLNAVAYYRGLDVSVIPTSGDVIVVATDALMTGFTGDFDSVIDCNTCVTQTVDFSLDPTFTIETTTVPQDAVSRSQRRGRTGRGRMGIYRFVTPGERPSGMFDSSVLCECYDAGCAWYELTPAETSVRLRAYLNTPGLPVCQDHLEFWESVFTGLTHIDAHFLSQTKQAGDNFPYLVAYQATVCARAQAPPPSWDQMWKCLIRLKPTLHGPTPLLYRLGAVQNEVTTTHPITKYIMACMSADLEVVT
Sequence of NS3 enzyme, genotype 1b HCV (HCV NS3/4A protease) (Q9WMX2 1658-1711): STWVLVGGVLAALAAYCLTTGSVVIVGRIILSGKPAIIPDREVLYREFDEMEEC

SMILES: COc1ccc2c(O[C@@H]3C[C@H]4C(=O)N[C@]5(C(=O)O)C[C@H]5/C=C\CCCCC[C@H](NC(=O)OC5CCCC5)C(=O)N4C3)cc(-c3csc(NC(C)C)n3)nc2c1 [BILN-2061]
- Cardiotoxicity finding [1]: cardiotoxocity identified in rhesus monkeys

SMILES: C=C[C@@H]1C[C@]1(NC(=O)[C@@H]1C[C@@H]2CN1C(=O)[C@H](C1CCCCC1)NC(=O)[C@@H](NC(=O)OC(C)(C)C)COC/C=C/c1cc3c(nccc3cc1OC)O2)C(=O)NS(=O)(=O)C1CC1 [GP205, potassium tert-butyl N-[(3R,5S,8S,11S,15E)-8-cyclohexyl-5-{[(1R,2S)-1-[(cyclo-propanesulfonyl)carbamoyl]-2-ethenylcyclopropyl]carbamoyl}-18-methoxy-7,10-dioxo-2,13-dioxa-6,9,23-triazatetracyclo[15.6.2.13,6.020,24]hexacosa-1(23),15,17(25),18,20(24),21-hexaen-11-yl] carbamate monohydrate]
- VD [2]: 0.31 ± 0.12 L
- AUC relative to MK-1220 (fold higher) [3]: ~11 fold
- Cmax relative to MK-1220 (fold higher) [3]: about 2 fold
- Time of maximum plasma drug concentration ([3]; both): about 6 h
- IC50 [4]: 4 nM
- Accuracy [5, 10]: 2.8%
- Measured Conc. [5, 10]: 5.14 ng/mL
- Accuracy [5, 11]: 0.6%
- Measured Conc. [5, 11]: 100.63 ng/mL
- Accuracy [5, 12]: −0.2%
- Measured Conc. [5, 12]: 3992.75 ng/mL
- Accuracy [5, 13]: 1.8%
- Measured Conc. [5, 13]: 5.09 ng/mL
- Accuracy [5, 14]: 3.3%
- Measured Conc. [5, 14]: 103.26 ng/mL
- Accuracy [5, 15]: −0.3%
- Measured Conc. [5, 15]: 3987.91 ng/mL
- Accuracy ([6]; 5 ng/mL): −5.5%
- Measured Conc. ([6]; 5 ng/mL): 4.73 ng/mL
- Accuracy ([6]; 100 ng/mL): −5.1%
- Measured Conc. ([6]; 100 ng/mL): 94.90 ng/mL
- Accuracy ([6]; 4000 ng/mL): −1.9%
- Measured Conc. ([6]; 4000 ng/mL): 3925.86 ng/mL
- Accuracy ([6]; 4 h, 5 ng/mL): −3.3%
- Measured Conc. ([6]; 4 h, 5 ng/mL): 4.84 ng/mL
- Accuracy ([6]; 4 h, 100 ng/mL): −1.6%
- Measured Conc. ([6]; 4 h, 100 ng/mL): 98.39 ng/mL
- Accuracy ([6]; 4 h, 4000 ng/mL): −2.9%
- Measured Conc. ([6]; 4 h, 4000 ng/mL): 3884.71 ng/mL
- Accuracy ([6]; 24 h, 5 ng/mL): −4.2%
- Measured Conc. ([6]; 24 h, 5 ng/mL): 4.79 ng/mL
- Accuracy ([6]; 24 h, 100 ng/mL): −3.9%
- Measured Conc. ([6]; 24 h, 100 ng/mL): 96.13 ng/mL
- Accuracy ([6]; 24 h, 4000 ng/mL): −2.4%
- Measured Conc. ([6]; 24 h, 4000 ng/mL): 3904.44 ng/mL
- Accuracy ([6]; 40 days, 5 ng/mL): −7.7%
- Measured Conc. ([6]; 40 days, 5 ng/mL): 4.61 ng/mL
- Accuracy ([6]; 40 days, 100 ng/mL): −7.2%
- Measured Conc. ([6]; 40 days, 100 ng/mL): 92.84 ng/mL
- Accuracy ([6]; 40 days, 4000 ng/mL): −4.7%
- Measured Conc. ([6]; 40 days, 4000 ng/mL): 3812.43 ng/mL
- concentration at 1 h ([7]; po, 2.5 mg/kg): 716 ng/mL
- bioavailability ([7]; both): 34%
- AUC ([7]; both, po, 2.5 mg/kg): 64300 ng·h/mL
- AUC(0-inf) ([7]; both, po, 2.5 mg/kg): 70100 ng·h/mL
- Cmax ([7]; both, po, 2.5 mg/kg): 4260 ± 400 ng/mL
- MRT ([7]; both, po, 2.5 mg/kg): 19.4 ± 3.22 h
- Tmax ([7]; both, po, 2.5 mg/kg): 6.3 ± 0.8 h
- half-life ([7]; both, po, 2.5 mg/kg, t1/2): 12.4 ± 1.51 h
- AUC ([7]; both, po, 5 mg/kg): 122000 ng·h/mL
- AUC(0-inf) ([7]; both, po, 5 mg/kg): 135000 ng·h/mL
- Cmax ([7]; both, po, 5 mg/kg): 6780 ± 750 ng/mL
- MRT ([7]; both, po, 5 mg/kg): 22.2 ± 2.18 h
- Tmax ([7]; both, po, 5 mg/kg): 6.3 ± 1.5 h
- half-life ([7]; both, po, 5 mg/kg, t1/2): 13.9 ± 1.48 h
- AUC ([7]; both, po, 10 mg/kg): 176000 ng·h/mL
- AUC(0-inf) ([7]; both, po, 10 mg/kg): 205000 ng·h/mL
- Cmax ([7]; both, po, 10 mg/kg): 9410 ± 583 ng/mL
- MRT ([7]; both, po, 10 mg/kg): 25.6 ± 3.48 h
- Tmax ([7]; both, po, 10 mg/kg): 6.3 ± 0.8 h
- half-life ([7]; both, po, 10 mg/kg, Elimination half time (t1/2)): 12.4 to 17.2 h
- half-life ([7]; both, po, 10 mg/kg, t1/2): 17.2 ± 2.73 h
- AUC [8]: 66600 ng·h/mL
- AUC(0-inf) [8]: 75200 ng·h/mL
- C0 [8]: 9510 ± 442 ng/mL
- MRT [8]: 20.8 ± 3.41 h
- clearance [8]: 0.333 mL/min/kg
- half-life [8]: 16.3 ± 2.99 h

SMILES: C=C[C@@H]1C[C@]1(NC(=O)[C@@H]1C[C@@H]2CN1C(=O)[C@H](C1CCCCC1)NC(=O)OCC(C)(C)CCCc1cc3c(nccc3cc1OC)O2)C(=O)NS(=O)(=O)C1CC1 [MK-1220]
- IC50 ([4]; NS3 enzyme, genotype 1b HCV, in vitro, read-out: IC50): 11 nM
- t1/2 [9]: about 6 h

SMILES: CCC[C@H](NC(=O)[C@@H]1[C@H]2CCC[C@H]2CN1C(=O)[C@@H](NC(=O)[C@@H](NC(=O)c1cnccn1)C1CCCCC1)C(C)(C)C)C(=O)C(=O)NC1CC1 [telaprevir]
- IC50 [4]: 95 nM
